Results as given in patent publication US11753445B2, “Therapeutic peptides” (COHBAR, INC., priority 2016, dated 2023).
Marks after values point to notes of the source that are not given here.

What was measured:
[1] = tested on: Diet Induced Obese (DIO) mice; test: Body weight and fat mass in Diet Induced Obese mice, 21-day study (Example 7); assay type: in vivo, Male C57BL/6 mice; conditions: male DIO mice, Mean (SD)
Experimental: Male C57BL/6 mice were maintained on a high fat diet for 12 to 22 weeks to develop diet induced obesity. Animals were randomized to treatment groups based on blood glucose levels and body weight. The peptides (SEQ ID No: 208 and SEQ ID NO: 210) were each administered to a group of male DIO mice twice daily by appropriate routes at a dose of 15 mg/kg/dose for 21 days (N=8 to 12 animals per treatment group). […] Metabolic parameters including body weight, blood glucose levels and food intake were monitored. Body mass distribution (fat vs lean) was determined where appropriate by quantitative whole body NMR prior to dosing and at the end of dosing.

[2] = tested on: STAM Mouse Model of Non-alcoholic Steatohepatitis (NASH); test: Liver triglyceride and plasma ALT levels in STAM mouse model of NASH (Example 19); assay type: in vivo, C57/BL6 mice; conditions: male STAM mice, N = 8, Mean (SD)
Experimental: In the STAM® model of NASH, C57/BL6 mice were injected with a single subcutaneous dose of 200 μg […], two days after birth to destroy pancreatic j-cells. At the age of 4 weeks, animals were put on a high fat diet (57% kcal from fat) and maintained on the same diet throughout the study. […] […] A control group of STAM animals (n=8) received daily doses of telmisartan control compound (10 mg/kg). An additional group of normal mice (n=8) received no treatment. After 21 days of dosing, at 9 weeks of age, metabolic parameters were determined and animals were sacrificed. Liver triglyceride levels were determined by homogenization in chloroform-methanol and incubation overnight at room temperature. After washing with chloroform-methanol-water, the extracts were evaporated to dryness and dissolved in isopropanol. Liver triglyceride content was then measured by Triglyceride E-test (Wako, Japan). Plasma ALT levels were determined by using Fuji Dri-Chem 7000 (Fujifilm, Japan).

[3] = tested on: STAM Mouse Model of Non-alcoholic Steatohepatitis (NASH); test: NAFLD activity score in STAM mouse model of NASH (Example 18); assay type: in vivo, C57/BL6 mice; conditions: male STAM mice, N = 8, Mean (SD)
Experimental: In the STAM® model of NASH, C57/BL6 mice were injected with a single subcutaneous dose of 200 μg […], two days after birth to destroy pancreatic j-cells. At the age of 4 weeks, animals were put on a high fat diet (57% kcal from fat) and maintained on the same diet throughout the study. […] Beginning at 6 weeks of age, groups of STAM animals (8 animals per group) were treated with the peptides of the present invention administered twice daily by intraperitoneal injection, until study termination. A control group of STAM animals (n=8) received daily doses of telmisartan control compound (10 mg/kg). An additional group of normal mice (n=8) received no treatment. After 21 days of dosing, at 9 weeks of age, metabolic parameters were determined and animals were sacrificed. Liver samples were obtained and fixed, embedded in paraffin, stained with hematoxylin and eosin, and examined by light microscopy. The extent of steatosis and the non-alcoholic fatty liver disease (NAFLD) activity score (NAS) were determined histopathologically according to methods known in the art.

[4] = tested on: Diet Induced Obese (DIO) mice; test: Serum triglycerides and enzyme markers of liver damage in DIO mice, 21 days (Example 9); assay type: in vivo, Male C57BL/6 mice; conditions: male DIO mice; for reduction in serum ALT compared to liraglutide or vehicle alone / reduction in serum AST compared to liraglutide or vehicle alone / reduction in serum triglycerides compared to liraglutide or vehicle alone: 21 days twice daily 15 mg/kg/dose; for ALT (U/L), mean concentration in serum / AST (U/L), mean concentration in serum / Triglycerides (mg/dL), mean concentration in serum: 21 days twice daily IP 15 mg/kg/dose, serum 2 hours after first dose on Day 21
Experimental: Male C57BL/6 mice were maintained on a high fat diet for 12 to 22 weeks to develop diet induced obesity. Animals were randomized to treatment groups based on blood glucose levels and body weight. The peptides (SEQ ID No: 208, and SEQ ID NO: 210) were each administered to a group of male DIG mice twice daily by appropriate routes at a dose of 15 mg/kg/dose for 21 days (N=8 to 12 animals per treatment group). […] Serum samples were obtained at termination 2 hours after the first dose on Day 21. Samples were analyzed for standard clinical chemistry parameters by methods well known in the art.

[5] = 21 days twice daily IP 15 mg/kg/dose
[6] = 21 days IP BID 15 mg/kg/dose beginning at 6 weeks of age

Compound	Decrease from Baseline in Body Weight (%) [1, 5]	reduction in serum ALT compared to liraglutide or vehicle alone [4]	reduction in serum AST compared to liraglutide or vehicle alone [4]	reduction in serum triglycerides compared to liraglutide or vehicle alone [4]	ALT (U/L), mean concentration in serum [4]	AST (U/L), mean concentration in serum [4]	Triglycerides (mg/dL), mean concentration in serum [4]	Liver Triglyceride Levels (mg/g liver) [2, 6]	Plasma ALT (U/L) [2, 6]	NAFLD Activity Score (NAS) [3, 6]	also measured
CCc1ccc(CCOc2ccc(CC3SC(=O)NC3=O)cc2)nc1 (centres unmarked) [Pioglitazone, pioglitazone, reference compound]											Decrease from Baseline in Body Weight (%) ([1]; 21 days twice daily PO 15 mg/kg/dose): 1.0 (3.1) %
CCCc1nc2c(C)cc(-c3nc4ccccc4n3C)cc2n1Cc1ccc(-c2ccccc2C(=O)O)cc1 [Telmisartan, telmisartan, reference compound]											Liver Triglyceride Levels (mg/g liver) ([2]; 21 days PO BID 10 mg/kg): 18.8 (5.8)* mg/g liver; Plasma ALT (U/L) ([2]; 21 days PO BID 10 mg/kg): 39 (6)* U/L; NAFLD Activity Score (NAS) ([3]; 21 days PO QD 10 mg/kg/dose beginning at 6 weeks of age): 2.6 (0.5)*
H-MRWQEMGYIFYPRKLR-OH [SEQ ID NO: 2, reference compound]	−9.3 (5.0) %										
H-MRWQEMNYIFYPR-OH [SEQ ID NO: 208]	−17.2 (3.0) %	greater reduction	greater reduction	greater reduction	40.4 U/L	70.0 U/L	76.0 mg/dL	35.3 (15.1)* mg/g liver	43 (16)* U/L	3.7 (0.5)*	Decrease from Baseline in Fat Mass (g) [1, 5]: −6.4 (0.5) g
H-RWQEMNYIFYPR-OH [SEQ ID NO: 210]	−14.1 (4.8) %	greater reduction	greater reduction	greater reduction	45.0 U/L	125 U/L	93.0 mg/dL	43.6 (9.3)* mg/g liver	37 (13)* U/L	3.3 (1.1)*	
